IC50, DC50 and Dmax data for 15 molecules are collected here from patent publication US20220348595A1, “COMPOUNDS AND METHODS FOR THE TARGETED DEGRADATION OF ESTROGEN RECEPTORS” (Endotarget Inc., priority 2021, published 2022).

Common to all, as to type: cell-based
One assay concerns the target T1, ER (Homo sapiens, UniProt P03372).
T1 construct: endogenous in cells; host or cells: T47d-kb-Luc (T47D stably transfected with a luciferase reporter gene only)
T1 sequence (P03372 1-595): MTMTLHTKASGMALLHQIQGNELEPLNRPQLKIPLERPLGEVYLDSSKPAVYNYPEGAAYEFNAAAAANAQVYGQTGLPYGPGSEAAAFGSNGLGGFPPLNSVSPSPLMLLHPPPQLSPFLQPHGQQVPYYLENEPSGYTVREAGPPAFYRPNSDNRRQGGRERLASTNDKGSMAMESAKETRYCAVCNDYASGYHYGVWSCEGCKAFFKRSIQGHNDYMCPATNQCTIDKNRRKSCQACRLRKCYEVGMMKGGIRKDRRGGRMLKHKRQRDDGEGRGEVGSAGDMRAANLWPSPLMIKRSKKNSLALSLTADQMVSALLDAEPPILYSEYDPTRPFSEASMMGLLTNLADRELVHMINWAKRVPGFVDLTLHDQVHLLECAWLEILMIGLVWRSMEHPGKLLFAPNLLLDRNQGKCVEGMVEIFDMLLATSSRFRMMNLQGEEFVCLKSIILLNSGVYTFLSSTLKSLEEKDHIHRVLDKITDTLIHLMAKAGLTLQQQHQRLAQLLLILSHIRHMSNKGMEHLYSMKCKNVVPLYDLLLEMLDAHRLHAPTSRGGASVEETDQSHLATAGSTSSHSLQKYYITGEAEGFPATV
Put plainly: ER antagonism (T47D ERE luciferase), T47d-kb-Luc cells. The note with it: read-out: IC50 (ER antagonistm). In short, it runs like this:
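Five sample concentrations, each in quadruplicate and repeated in at least three experiments, were tested for blocking of estradiol activity. Values were expressed relative to the estradiol control. The cell system was the T47d-kb-Luc stable breast cancer line.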

Assay [1] relates to MCF-7 breast cancer cells. As to the kind of experiment: MCF-7 proliferation / cell viability assay. The note with it: Homo sapiens, MCF7; MCF-7 proliferation with 0.1 nM 17-beta estradiol; read-out: IC50 (anti-proliferation). Summed up: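 Survival ratio, with vehicle (DMSO) as 100%, was derived from Coulter-counted viable cell numbers. Cells were grown in 5% FBS DMEM and dosed for 5 days across six concentrations between 10^−10 M and 10^−5 M.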

The target in a further assay is T2, ERα (Homo sapiens, UniProt P03372).
T2 construct: endogenous in cells; host or cells: MCF-7
T2 sequence (P03372 1-595): T1 sequence (P03372 1-595)
Put plainly: ER degradation in MCF-7 cells (Western blot). The following applies: for DC50: ER degradation, 24 hours; for Dmax: MCF7, Maximal ER degradation, read-out: Dmax. Summed up: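 ERα levels assessed by Western blot (50 μg lysate protein, infrared scanner) after 24-hour exposure of MCF-7 cells to varied compound concentrations. Values reported as DC50, the concentration halving ER expression, and Dmax, the maximal ER reduction achieved across tested concentrations.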

Structures are written as SMILES. pIC50: −log10 of the molar value. Bounds are passed on as bounds.

One may read the DC50 as the midpoint of the concentration-degradation curve. Low values mean a more potent degrader, high ones a less potent degrader. In general, Dmax refers to the largest share of the target that was removed. For `CC/C(=C(\c1ccc(O)cc1)c1ccc(N2CCN(C(=O)N3CCC(N4CCN(c5ccc6c(c5)CN(C5CCC(=O)NC5=O)C6=O)CC4)CC3)CC2)cc1)c1ccccc1` (stereo not drawn) [Compound 109, (E)-3-(5-(4-(1-(4-(4-(1-(4-hydroxyphenyl)-2-phenylbut-1-en-1-yl)phenyl)piperazine-1-carbonyl)piperidin-4-yl)piperazin-1-yl)-1-oxoisoindolin-2-yl)piperidine-2,6-dione], the pIC50 at ER was > 8.00. Also, the pIC50 in assay [1] was 7.30 to 8.00. Besides, at ERα, the DC50 lay in the range of 10 to 50 nM and the Dmax is > 90%.
Consider `CC/C(=C(/c1ccc(OCCN2CCN(CC3CCN(c4ccc5c(c4)C(=O)N(C4CCC(=O)NC4=O)C5=O)CC3)CC2)cc1)c1ccc(B(O)O)cc1)c1ccccc1` (stereo not drawn) [Compound 17, (Z)-(4-(1-(4-(2-(4-((1-(2-(2,6-dioxopiperidin-3-yl)-1,3-dioxoisoindolin-5-yl)piperidin-4-yl)methyl)piperazin-1-yl)ethoxy)phenyl)-2-phenylbut-1-en-1-yl)phenyl)boronic acid], for which the pIC50 (at ER; in assay [1]) was 7.30 to 8.00 throughout. The half-maximal degradation concentration (DC50) on ERα was < 10 nM. For the same molecule, the maximal degradation (Dmax) at ERα is > 90%.
For the molecule `CC/C(=C(/c1ccc(B(O)O)cc1)c1ccc(N2CCC(CNC3CCN(c4ccc5c(c4)C(=O)N(C4CCC(=O)NC4=O)C5=O)CC3)CC2)cc1)c1ccccc1` (stereo not drawn) [Compound 40, (E)-(4-(1-(4-(4-(((1-(2-(2,6-dioxopiperidin-3-yl)-1,3-dioxoisoindolin-5-yl)piperidin-4-yl)amino)methyl)piperidin-1-yl)phenyl)-2-phenylbut-1-en-1-yl)phenyl)boronic acid], the pIC50 (on ER; in assay [1]) was 7.30 to 8.00 each time. The 50% degradation concentration (DC50) on ERα was < 10 nM. Moreover, the Dmax on ERα is > 90%.
`CC/C(=C(/c1ccc(OCCN2CCC(CCN3CCN(c4ccc5c(c4)CN(C4CCC(=O)NC4=O)C5=O)CC3)CC2)cc1)c1ccc(B(O)O)cc1)c1ccccc1` (stereo not drawn) [Compound 29, (Z)-(4-(1-(4-(2-(4-(2-(4-(2-(2,6-dioxopiperidin-3-yl)-1-oxoisoindolin-5-yl)piperazin-1-yl)ethyl)piperidin-1-yl)ethoxy)phenyl)-2-phenylbut-1-en-1-yl)phenyl)boronic acid]: the pIC50 (at ER; in assay [1]) was 7.30 to 8.00 in each case. Also, the DC50 on ERα was in the range of 10 to 50 nM. At ERα, the maximal degradation (Dmax) is > 90%.
Take `CC/C(=C(\c1ccc(B2OC(C)(C)C(C)(C)O2)cc1)c1ccc(N2CCC(CCN3CCN(c4ccc5c(c4)CN(C4CCC(=O)NC4=O)C5=O)CC3)CC2)cc1)c1ccccc1` (stereo not drawn) [Compound 9, (Z)-3-(1-oxo-5-(4-(2-(1-(4-(2-phenyl-1-(4-(4,4,5,5-tetramethyl-1,3,2-dioxaborolan-2-yl)phenyl)but-1-en-1-yl)phenyl)piperidin-4-yl)ethyl)piperazin-1-yl)isoindolin-2-yl)piperidine-2,6-dione]: on ER, the pIC50 was > 8.00. In assay [1], the pIC50 was > 8.00. In addition, at ERα, the half-maximal degradation concentration (DC50) lay in the range of 10 to 50 nM and the maximal degradation (Dmax) was > 90%.
In the case of `CC/C(=C(/c1ccc(OCCN2CCC(N3CCN(c4ccc5c(c4)C(=O)N(C4CCC(=O)NC4=O)C5=O)CC3)CC2)cc1)c1ccc(B(O)O)cc1)c1ccccc1` (stereo not drawn) [Compound 31, (Z)-(4-(1-(4-(2-(4-(4-(2-(2,6-dioxopiperidin-3-yl)-1,3-dioxoisoindolin-5-yl)piperazin-1-yl)piperidin-1-yl)ethoxy)phenyl)-2-phenylbut-1-en-1-yl)phenyl)boronic acid], the pIC50 on ER is < 7.30. The pIC50 in assay [1] is < 7.30. At ERα, the half-maximal degradation concentration (DC50) lay within 10 to 50 nM and the Dmax is > 90%.
For the molecule `CC/C(=C(\c1ccc(B(O)O)cc1)c1ccc(N2CCC(CNC3CCN(c4ccc5c(c4)CN(C4CCC(=O)NC4=O)C5=O)CC3)CC2)cc1)c1ccccc1` (stereo not drawn) [Compound 11], the pIC50 on ER is > 8.00. For the same molecule, the pIC50 in assay [1] is > 8.00. Besides, on ERα, the DC50 was < 10 nM and the Dmax is > 90%.
For `CC/C(=C(\c1ccc(OCCN2CCN(CC3CCN(c4ccc5c(c4)CN([C@@H]4CCC(=O)NC4=O)C5=O)CC3)CC2)cc1)c1ccc(B(O)O)cc1)c1ccccc1` [Compound 72], the pIC50 on ER was > 8.00. Besides, the pIC50 in assay [1] is > 8.00. On ERα, the DC50 was < 10 nM and the Dmax is > 90%.
For `CC/C(=C(/c1ccc(B(O)O)cc1)c1ccc(C2CCN(CCCN3CCN(c4ccc5c(c4)C(=O)N(C4CCC(=O)NC4=O)C5=O)CC3)CC2)cc1)c1ccccc1` (stereo not drawn) [Compound 48, (E)-(4-(1-(4-(1-(3-(4-(2-(2,6-dioxopiperidin-3-yl)-1,3-dioxoisoindolin-5-yl)piperazin-1-yl)propyl)piperidin-4-yl)phenyl)-2-phenylbut-1-en-1-yl)phenyl)boronic acid], the pIC50 at ER is 7.30 to 8.00. In assay [1], the pIC50 was 7.30 to 8.00. In addition, on ERα, the half-maximal degradation concentration (DC50) was < 10 nM and the maximal degradation (Dmax) is > 90%.
As to `CC/C(=C(\c1ccc(OCCN2CCN(C(=O)N3CCN(c4ccc5c(c4)CN(C4CCC(=O)NC4=O)C5=O)CC3)CC2)cc1)c1ccc(B(O)O)cc1)c1ccccc1` (stereo not drawn) [Compound 86, (E)-(4-(1-(4-(2-(4-(4-(2-(2,6-dioxopiperidin-3-yl)-1-oxoisoindolin-5-yl)piperazine-1-carbonyl)piperazin-1-yl)ethoxy)phenyl)-2-phenylbut-1-en-1-yl)phenyl)boronic acid], the pIC50 on ER is > 8.00. In addition, the pIC50 in assay [1] was > 8.00. For the same molecule, at ERα, the DC50 was < 10 nM and the greatest degradation seen (Dmax) is > 90%.
For `CC/C(=C(/c1ccc(OCCN2CCC(CN3CCN(c4ccc5c(c4)C(=O)N(C4CCC(=O)NC4=O)C5=O)CC3)CC2)cc1)c1ccc(B(O)O)cc1)c1ccccc1` (stereo not drawn) [Compound 19, (Z)-(4-(1-(4-(2-(4-((4-(2-(2,6-dioxopiperidin-3-yl)-1,3-dioxoisoindolin-5-yl)piperazin-1-yl)methyl)piperidin-1-yl)ethoxy)phenyl)-2-phenylbut-1-en-1-yl)phenyl)boronic acid], at ER, the pIC50 is < 7.30. Moreover, in assay [1], the pIC50 was < 7.30. Moreover, on ERα, the half-maximal degradation concentration (DC50) is 10 to 50 nM and the maximal degradation (Dmax) was > 75%.
On to `CC/C(=C(\c1ccc(B(O)O)cc1)c1ccc(N2CCC(CNC3CCN(c4ccc5c(c4)C(=O)N(C4CCC(=O)NC4=O)C5=O)CC3)CC2)cc1)c1ccccc1` (stereo not drawn) [Compound 39, (Z)-(4-(1-(4-(4-(((1-(2-(2,6-dioxopiperidin-3-yl)-1,3-dioxoisoindolin-5-yl)piperidin-4-yl)amino)methyl)piperidin-1-yl)phenyl)-2-phenylbut-1-en-1-yl)phenyl)boronic acid], for which the pIC50 (on ER; in assay [1]) was 7.30 to 8.00 in each case. In addition, the DC50 at ERα was < 10 nM. Moreover, the Dmax on ERα was > 90%.
As for `CC/C(=C(\c1ccc(O)cc1)c1ccc(N2CCN(C(=O)N3CCN(c4ccc5c(c4)CN(C4CCC(=O)NC4=O)C5=O)CC3)CC2)cc1)c1ccccc1` (stereo not drawn) [Compound 97, (E)-3-(5-(4-(4-(4-(1-(4-hydroxyphenyl)-2-phenylbut-1-en-1-yl)phenyl)piperazine-1-carbonyl)piperazin-1-yl)-1-oxoisoindolin-2-yl)piperidine-2,6-dione], the pIC50 on ER is > 8.00. Also, in assay [1], the pIC50 is 7.30 to 8.00. In addition, on ERα, the DC50 was in the range of 10 to 50 nM and the Dmax is > 90%.
On to `CC/C(=C(\c1ccc(O)cc1)c1ccc(OCCN2CCN(C(=O)N3CCN(c4ccc5c(c4)CN(C4CCC(=O)NC4=O)C5=O)CC3)CC2)cc1)c1ccccc1` (stereo not drawn) [Compound 77], for which the pIC50 (on ER; in assay [1]) was > 8.00 in each case. Besides, at ERα, the DC50 is < 10 nM. The maximal degradation (Dmax) on ERα was > 90%.
Turning to `CC/C(=C(/c1ccc(O)cc1)c1ccc(OCCN2CCN(C(=O)N3CCN(c4ccc5c(c4)CN(C4CCC(=O)NC4=O)C5=O)CC3)CC2)cc1)c1ccccc1` (stereo not drawn) [Compound 80, (E)-3-(5-(4-(4-(2-(4-(1-(4-hydroxyphenyl)-2-phenylbut-1-en-1-yl)phenoxy)ethyl)piperazine-1-carbonyl)piperazin-1-yl)-1-oxoisoindolin-2-yl)piperidine-2,6-dione], the pIC50 (on ER; in assay [1]) was > 8.00 throughout. Also, the 50% degradation concentration (DC50) at ERα is < 10 nM. On ERα, the Dmax was > 90%.
